This note sets out measurements from PubChem BioAssay (NCI).

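Protocol summary: plate cells (96-well), add compound at 5 concentrations, incubate 48 h, interpolate endpoints linearly. At the TGI there is no net growth.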

Holding throughout (assay): NCI-60 cell line screen, 48 h
For assay [1], the system named is HCT-15 colon.
The subject of assay [2] is EKVX NSCLC.
Assay [3] concerns A498 renal.
Assay [4] relates to OVCAR-5 ovarian.
Assay [5] has as its system SK-MEL-28 melanoma.
The subject of assay [6] is UO-31 renal.
For assay [7], the system named is OVCAR-4 ovarian.
The subject of assay [8] is 786-0 renal.
Assay [9] concerns SK-OV-3 ovarian.

As for `Cc1cccc(N=C2NC(=O)C(CC(=O)Nc3ccccc3Cl)S2)c1` (configuration not stated), the TGI in assay [1], in assay [2], in [3], in assay [4], in assay [5] and in assay [6] was > 100 µM throughout. The TGI in [7] and in assay [8] was > 100 µM each time.

`O=C1NN=CN2C(=O)CCC12` (configuration not stated): the TGI in [1], in assay [2], in [3], in assay [9], in [5] and in assay [6] was > 100 µM each time. Further, the TGI in [7] and in [8] was > 100 µM each time.

As to `O=S(=O)(N/N=C/c1ccc(Cl)cc1Cl)c1ccccc1`, the TGI in assay [1], in assay [2], in [3], in [9], in [4] and in [5] was > 100 µM throughout. In addition, the TGI in assay [6], in [7] and in assay [8] was > 100 µM throughout.

For the compound `NC(=O)N/N=C(\CCC(=O)N(Cc1ccccc1)Cc1ccccc1)CC(=O)c1ccc(F)cc1`, the TGI in assay [1], in assay [2], in assay [9], in assay [4], in [5] and in assay [6] was > 100 µM in each case. Besides, the TGI in assay [7] is > 100 µM; in [8] it was 87.4 µM.

Turning to `Nc1ccc(C2=Nc3ccccc3SC(c3ccccc3O)C2)cc1` (configuration not stated), the TGI was > 100 µM in [1]; > 100 µM in assay [2]; 74.1 µM in assay [3]; > 100 µM in [9]; > 100 µM in assay [4]; > 100 µM in assay [5]. Moreover, the figures for the TGI in [6], in [7] and in [8] were > 100 µM, > 100 µM and 73.6 µM, respectively.

As for `CC(=O)O/N=C/c1cc2c(cc1Br)OCO2`, the TGI in [1], in assay [2], in [9], in assay [4], in assay [5] and in [8] was > 349 µM throughout.

For `COc1ccc(/C=N\O[Si](C)(C)C(C)(C)C)cc1O[Si](C)(C)C(C)(C)C`, the TGI in assay [1] was 34 µM; in assay [2] it was 41.6 µM; in assay [3], 33.2 µM; in assay [9], 46.5 µM; in [4] it was 39 µM; in assay [6], 27.9 µM. Besides, the TGI in assay [7] turned out to be 46.3 µM; in [8], 30.8 µM.

For the compound `O=C(CC(=O)C1CCOC1=O)C(=O)Nc1ccc(Cl)cc1` (configuration not stated), the TGI in assay [1], in assay [2], in [3], in assay [9], in assay [4] and in assay [5] was > 100 µM throughout. The TGI in assay [6], in [7] and in [8] was > 100 µM throughout.

`OC1c2ccccc2C2C(O)c3ccccc3C12` (configuration not stated): the TGI in assay [1], in assay [2], in assay [9], in assay [4], in assay [5] and in [6] was > 100 µM throughout. Further, the TGI in assay [7] and in assay [8] was > 100 µM throughout.

Regarding `NNC(=S)N/N=C(/C(=O)Nc1ccc([N+](=O)[O-])cc1)c1nc2ccc([N+](=O)[O-])cc2[nH]c1=O`, the TGI in assay [1], in assay [2], in assay [3], in [9], in assay [4] and in assay [5] was > 100 µM throughout. The TGI in assay [6], in [7] and in [8] was > 100 µM throughout.

In the case of `NS(=O)(=O)c1ccc(NC(=O)c2cccc3c(Nc4ccc(S(N)(=O)=O)cc4)c4ccccc4nc23)cc1`, the TGI in assay [1], in [2], in [3], in assay [9], in assay [4] and in assay [5] was > 100 µM each time. For the same compound, the TGI in assay [6] was > 100 µM; in assay [7] it was 55.6 µM; in assay [8] it was > 100 µM.

Regarding `[O-][n+]1c2cc(CN3CCOCC3)c(CN3CCOCC3)cc2[n+]([O-])c2c(O)cccc21`, the TGI in assay [1] turned out to be 8.14 µM; in assay [2], 20.2 µM; in assay [3], 31.5 µM; in [9], 13.5 µM; in [4], 15.2 µM; in assay [5], 32.5 µM. Further, the TGI in [6] stood at 10.4 µM; in assay [7], 9.81 µM; in [8], 6.03 µM.

For `Cc1cc(C)nc(NS(=O)(=O)c2ccc(NC(=O)c3cccc4c(N)c5ccccc5nc34)cc2)n1`, the TGI in assay [1], in [2], in assay [3], in assay [9], in assay [4] and in [5] was > 100 µM throughout. In addition, the TGI in [6], in [7] and in [8] was > 100 µM each time.

On to `O=c1cc(-c2ccc(O)cc2)oc2cc(O)cc(O)c12`, for which the TGI in [1] was > 100 µM; in assay [2], 96.9 µM; in assay [9], 89.8 µM; in assay [4], 68 µM; in [5] it was 59.1 µM; in [6] it was 56.4 µM. Besides, the TGI in [7] and in assay [8] was > 100 µM throughout.

Take `COc1cc2c(Cc3cc(OCc4ccccc4)ccc3N)nccc2c(OC)c1OC`: the TGI in assay [1], in [2], in assay [9], in assay [4], in assay [5] and in assay [6] was > 10 µM in each case. The TGI in assay [8] was > 10 µM.

Take `COC(=O)C1=C(c2ccc(Cl)cc2)C(O)N=C(NN)N1` (configuration not stated): the TGI in assay [1], in assay [2], in assay [9], in assay [4], in assay [5] and in [6] was > 100 µM in each case. Further, the TGI in assay [7] and in [8] was > 100 µM each time.
